Data: patent US20240165196A1, “Beta-Lactamase Inhibitors” (VIB VZW, priority 2021, published 2024)

What was measured:
[1] = target: T1, recombinantly purified TEM-1 (Escherichia coli, UniProt P62593); type: biochemical, E. coli; conditions: thioflavin-T aggregation assay
T1 construct: DNA TEM (870 bp) or SHV (894 bp) were each sub-cloned into a PUC57 vector cloning site NdeI/XhoI; His-tag (N); TEV cleavage site (N); made in house; host or cells: E. coli BL21 (DE3)
Description: Three replicates are shown for each condition. […] A single representative image is shown. […] Three replicates are shown for each condition. […] A single representative image is shown. […] A single representative image is shown. […] A single representative image is shown.

[2] = system: 16 additional E. coli clinical isolates containing TEM or SHV enzymes; assay: MIC of ampicillin with fixed 30 μg/ml TEM3.2, isolate panel summary; type: cell-based; conditions: 14 out of 16 isolates
Experimental: Moreover, the core sequence of peptide TEM3.0 also occurs in the structurally related SHV β-lactamase (FIG. 2E). Although the C-terminal extension residues H and N have been replaced with physicochemically similar R and Q, respectively (FIG. 2H). […] To quantify the synergy between these four peptides and penicillin G, we performed a so-called checkerboard assay, which allows to compare the activity of two test compounds co-incubated (here peptide and a beta-lactam antibiotic), to their individual activities in isolation. The result from the assay is quantified as the Fractional Inhibitory Concentration Index (FICI), and it is generally accepted that values below 0.5 indicate synergistic effects between the compounds. […] We evaluated the synergy of the peptides with penicillin G in clinical E. coli isolates carrying the TEM (FIG. 2I) or SHV enzymes (FIG. 2J). […]
Determination of MIC values using the broth microdilution in the 96-well plate (BD Biosciences, Belgium) according to the EUCAST guideline, which was performed in 96-well polystyrene flat bottom microtiter plates (BD Biosciences). […] OD was measured at 590 nm a multipurpose ultraviolet-visible plate reader, and the absorbance of the growth bacteria was measured using absorbance reader. Bacterial growth was also visually inspected and agreed well with the OD reading.

T1 sequence (P62593 24-286 limits assumed): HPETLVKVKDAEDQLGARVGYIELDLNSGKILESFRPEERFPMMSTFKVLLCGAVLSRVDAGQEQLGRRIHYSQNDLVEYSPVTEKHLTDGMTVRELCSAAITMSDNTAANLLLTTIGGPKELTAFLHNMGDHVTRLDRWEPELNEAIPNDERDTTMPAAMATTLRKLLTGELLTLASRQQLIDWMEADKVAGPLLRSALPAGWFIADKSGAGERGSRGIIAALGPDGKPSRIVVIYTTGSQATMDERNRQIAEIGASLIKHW

Ac-RLTAFLHNRRPRLTAFLRQRR-NH2 [TEM3.2]
induction of aggregation of recombinantly purified TEM beta-lactamase [1]: potent inducer of the aggregation
clinical isolates sensitized to ampicillin [2]: 87%
